Experimental data as given in patent publication US8703107B2, “Cosmetic composition including leucodopachrome derivative” (Chanel Parfums Beaute, priority 2009, dated 2014).

System: Hyperpigmented melanocytes derived from normal neonatal prepuce
Assay: Effect on melanin synthesis in cultured hyperpigmented melanocytes (melanin content read at 490 nm)
Type: cell-based
Protocol: 3 solutions of methyl ester of triacetyl leucodopachrome were prepared, respectively at concentrations of 0.0025%, 0.00025% and 0.000025% by weight in DMSO.
The effect of the methyl ester of (S)-triacetyl leucodopachrome on melanin synthesis was evaluated according to the following procedure.
Hyperpigmented melanocytes derived from normal neonatal prepuce of separate donors were bought from the company Cascade Biologics (Portland, Oreg., United States). The cells were seeded in 6-well plates and cultured in a growth medium of the melanocytes (medium topped up with bovine pituitary extract, fetal bovine serum, bovine insulin, transferrin, conventional fibroblast growth factor, hydrocortisone, heparin and phorbol 12-myristate 13-acetate).
In a second stage, the cells were incubated with a growth medium (MGM, Clonetics) containing the active products, in three copies, for 5 days. The medium was withdrawn and the cells washed with PBS (Gibco/Invitrogen). The cells were lyzed and the melanin solubilized in NaOH.
The supernatant was centrifuged. After centrifugation, the clear lysate was transferred to a new plate and the melanin content was measured on an ELISA reader at 490 nm. The pellets were visualized on an Alphalnnotech imager.

COC(=O)[C@@H]1Cc2cc(OC(C)=O)c(OC(C)=O)cc2N1C(C)=O [methyl ester of (S)-triacetyl leucodopachrome]
inhibition of the melanin synthesis (in words) (0.000025% to 0.0025% solutions): increases with the concentration
inhibition at 2.5e-05 % strength (Melanocyte, 120 h, 0.000025% by weight solution in DMSO, 5 days incubation, melanin at 490 nm): 5.49%
inhibition at 0.00025 % strength (Melanocyte, 120 h, 0.00025% by weight solution in DMSO, 5 days incubation, melanin at 490 nm): 6.7%
inhibition at 0.0025 % strength (Melanocyte, 120 h, 0.0025% by weight solution in DMSO, 5 days incubation, melanin at 490 nm): 32.8%
